The record followed here is US7576094B2, “Spiro derivatives as lipoxygenase inhibitors” (Eli Lilly and Company, priority 2004, dated 2009).

A value given as a limit tells only on which side of the number the result lay.

As a reminder, the EC50 is the concentration needed to bring the measured effect to its halfway point.

Assay [1] concerns the target T1, human recombinant 5-Lipoxygenase (Homo sapiens, UniProt P09917).
T1 sequence (P09917 1-674): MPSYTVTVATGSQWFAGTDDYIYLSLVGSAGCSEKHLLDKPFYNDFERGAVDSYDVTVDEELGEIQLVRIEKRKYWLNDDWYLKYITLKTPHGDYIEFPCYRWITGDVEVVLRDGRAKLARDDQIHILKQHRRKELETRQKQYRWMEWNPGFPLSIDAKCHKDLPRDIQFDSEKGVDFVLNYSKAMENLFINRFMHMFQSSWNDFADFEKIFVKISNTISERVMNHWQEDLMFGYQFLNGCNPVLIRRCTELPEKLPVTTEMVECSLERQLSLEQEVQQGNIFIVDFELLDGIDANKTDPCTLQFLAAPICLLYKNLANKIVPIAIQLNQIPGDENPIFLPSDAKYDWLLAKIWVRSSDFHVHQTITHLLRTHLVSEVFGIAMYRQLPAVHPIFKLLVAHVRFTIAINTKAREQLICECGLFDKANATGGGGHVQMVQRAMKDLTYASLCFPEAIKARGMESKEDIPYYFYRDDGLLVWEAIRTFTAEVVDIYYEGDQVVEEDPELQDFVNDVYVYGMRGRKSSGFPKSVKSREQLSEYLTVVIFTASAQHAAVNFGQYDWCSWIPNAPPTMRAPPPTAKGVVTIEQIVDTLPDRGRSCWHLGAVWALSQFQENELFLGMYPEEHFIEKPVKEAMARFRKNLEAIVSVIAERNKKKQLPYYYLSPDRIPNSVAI
Description: 5-Lipoxygenase Enzyme Assay. Type of assay: biochemical. The conditions noted are these: 70 μM arachidonic acid, 10 minute incubation at room temperature, FOX reagent, absorbance at 620 nm; read-out: inhibition of 5-Lipoxygenase with an IC50. Summed up:
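Recombinant human 5-LOX in 50 mM Tris-HCl pH 7.4 was preincubated with compound, then 70 μM arachidonic acid was added for 10 min at room temperature. Hydroperoxide was read by FOX reagent (ferric xylenol orange, 1 h complex formation) as absorbance at 620 nm. Five concentrations in triplicate were tested, starting at 10 μM.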

The target in assay [2] is T2, porcine leukocyte 12/15-Lipoxygenase (Sus scrofa, UniProt P16469).
T2 sequence (P16469 1-663): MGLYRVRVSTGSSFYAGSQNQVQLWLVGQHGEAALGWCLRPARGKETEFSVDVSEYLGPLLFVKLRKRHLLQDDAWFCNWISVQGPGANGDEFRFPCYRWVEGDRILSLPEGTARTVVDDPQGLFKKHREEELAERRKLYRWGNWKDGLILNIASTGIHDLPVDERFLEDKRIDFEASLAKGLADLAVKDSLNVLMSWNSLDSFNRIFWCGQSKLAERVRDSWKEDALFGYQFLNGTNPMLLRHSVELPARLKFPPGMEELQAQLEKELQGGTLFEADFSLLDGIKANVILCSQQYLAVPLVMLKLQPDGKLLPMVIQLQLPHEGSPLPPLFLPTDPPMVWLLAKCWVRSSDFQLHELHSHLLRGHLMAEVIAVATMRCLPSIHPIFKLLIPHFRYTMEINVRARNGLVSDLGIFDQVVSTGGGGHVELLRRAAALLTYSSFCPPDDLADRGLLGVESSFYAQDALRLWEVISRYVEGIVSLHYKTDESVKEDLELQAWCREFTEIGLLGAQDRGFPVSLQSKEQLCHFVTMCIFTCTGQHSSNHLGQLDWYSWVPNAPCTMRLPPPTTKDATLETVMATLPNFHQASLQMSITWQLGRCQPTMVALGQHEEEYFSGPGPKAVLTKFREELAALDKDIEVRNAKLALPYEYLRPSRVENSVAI
Description: 12/15-Lipoxygenase Enzyme Assay. In kind it is biochemical. The settings on record: 70 μM arachidonic acid, 10 minute incubation at room temperature, FOX reagent, absorbance at 620 nm; read-out: inhibition of 12/15-Lipoxygenase with an IC50. The text has this: This procedure was used for measuring the enzymatic activity of porcine leukocyte 12/15-Lipoxygenase using a […] method based on the ferric oxidation of xylenol orange.
• 96 well flat bottom microfilter plates (VWR, Catalog # 62402-933 9295) • Lipoxygenase screening assay buffer (Cayman, Catalog # 760710) • Porcine leukocyte 12/15-Lipoxygenase (Cayman, Catalog # 60300) • Arachidonic Acid (Sigma, Catalog # A3555) • Xylenol orange tetrasodium salt (Aldrich, Catalog # 227854) • Iron (II) sulfate heptahydrate (Sigma, Catalog # F7002) • Sulfuric acid (95-98%) [18M] • Methanol Procedure
Porcine Leukocyte 12/15-Lipoxygenase (Cayman Cat # 60300) was used in this assay. Test compound and/or vehicle was added to 1.3 μL 12/15-Lipoxygenase in 50 mM Tris-HCl buffer, pH 7.4. The reaction was initiated by addition of 70 μM arachidonic acid in Tris-HCl buffer, pH 7.4, and terminated after a 10 minute incubation at room temperature by addition of FOX reagent (25 mM sulfuric acid, 100 μM xylenol orange, 100 μM iron (II) sulfate, methanol:water 9:1). The yellow color of acidified xylenol orange was converted to a blue color by the lipid hydroperoxide-mediated oxidation of Fe^2+ ions and the interaction of the resulting Fe^3+ ions with the dye. The complex was allowed to form during a 1 hour incubation at room temperature with shaking. Absorbance of the Fe^3+ complex was then measured at […] using a spectrophotometer.
Negative controls contained enzyme during the incubation step but substrate was not added until after the FOX reagent. Compounds are screened at 5 concentrations in triplicate starting at 10 μM

Assay [3] relates to release of the leukotriene LTB4 from a neutrophil cell line (MPRO cell line). Nature of the assay: LTB4-Cell Assay. In kind it is cell-based. The settings on record: Mus musculus, 1 h, read-out: inhibition of LTB4 with an EC50. In short, it runs like this: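 Mouse promyelocytic cells differentiated to neutrophils with 10 μM all-trans retinoic acid for 72 h, then stimulated with 1 μM A23187 plus compound for 1 h at 37° C. Supernatant LTB4 quantified by competitive EIA; 5 concentrations in quadruplicate from 10 μM top.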

Assay [4] deals with LTB4 production in human whole blood. Nature of the assay: Inhibition of LTB4 Production in Blood. Type of assay: cell-based. The conditions noted are these: 1 h, 20 μM A23187, 60 minutes at 37° C., LTB4 in plasma by ELISA, read-out: protection against LTB4 at an EC50. In short, it runs like this: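 Citrated human whole blood preincubated 15 min at 37 °C with compound (top final 30 μM, 1:3 dilutions, quadruplicate), then stimulated with 20 μM A23187 for 60 min at 37 °C. Plasma LTB4 quantified by ELISA; IC50 from percent inhibition versus vehicle.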

On to `Cc1c(C)c2c(c(C)c1O)C(SC(C)C)CC1(CCC1)O2` (stereo not drawn) [4-(isopropylthio)-5,7,8-trimethyl-3,4-dihydrospiro[chromene-2,1′-cyclobutan]-6-ol], for which the results for the IC50 in assay [1] and in assay [2] were less than 0.3 µM and less than 5 µM, respectively. Also, in assay [3], the EC50 is less than 5 µM.

`Cc1c(C)c2c(c(C)c1O)CCC1(CCC1)O2` [5,7,8-trimethyl-3,4-dihydrospiro[chromene-2,1′-cyclobutan]-6-ol]: the figures for the IC50 in assay [1] and in assay [2] were less than 0.3 µM and less than 5 µM, respectively. In assay [3], the 50% effective concentration (EC50) is less than 5 µM.

On to `Cc1c(O)c(Cl)c(C)c2c1CCC1(CCC1)O2` [7-chloro-5,8-dimethyl-3,4-dihydrospiro[chromene-2,1′-cyclobutan]-6-ol], for which the IC50 in assay [1] is less than 0.3 µM; in assay [2], less than 5 µM. The 50% effective concentration (EC50) in assay [3] was less than 5 µM.

As to `Cc1c(C)c2c(c(C)c1O)C=CC1(CCC1)S2` [5′,7′,8′-trimethylspiro[cyclobutane-1,2′-thiochromen]-6′-ol], the IC50 is less than 0.3 µM in assay [1] and less than 5 µM in assay [2]. In addition, the EC50 in assay [3] is less than 5 µM.

For `CO/N=C/C1=Cc2c(cc(C)c(O)c2C)OC12CCC2` [6-hydroxy-5,7-dimethylspiro[chromene-2,1′-cyclobutane]-3-carbaldehyde O-methyloxime], in assay [2], the IC50 was less than 5 µM. Besides, the concentration giving a half-maximal response (EC50) in assay [4] is less than 10 µM; in assay [3], less than 5 µM.

On to `COC(=O)CSCC1Cc2c(C)c(O)c(C)c(C)c2OC12CCC2` (stereo not drawn) [methyl {[(6-hydroxy-5,7,8-trimethyl-3,4-dihydrospiro[chromene-2,1′-cyclobutan]-3-yl)methyl]thio}acetate], for which the IC50 was less than 0.3 µM in assay [1] and less than 5 µM in assay [2]. Besides, the EC50 in assay [3] was less than 5 µM.

For `Cc1c(O)cc(Cl)c2c1CCC1(CCC1)O2` [8-chloro-5-methyl-3,4-dihydrospiro[chromene-2,1′-cyclobutan]-6-ol], the IC50 in assay [1] is less than 0.3 µM; in assay [2] it was less than 5 µM. Besides, in assay [3], the EC50 was less than 5 µM.

As to `Cc1c(C)c2c(c(C)c1O)CCC1(CCC1)S2` [5′,7′,8′-trimethyl-3′,4′-dihydrospiro[cyclobutane-1,2′-thiochromen]-6′-ol], the IC50 in assay [1] was less than 0.3 µM; in assay [2], less than 5 µM. Also, the EC50 in assay [3] is less than 5 µM.

With `Cc1c(C)c2c(c(C)c1O)C(OC1CCCC1)CC1(CCC1)O2` (stereo not drawn) [4-(cyclopentyloxy)-5,7,8-trimethyl-3,4-dihydrospiro[chromene-2,1′-cyclobutane]-6-diol], the IC50 is less than 0.3 µM in assay [1] and less than 5 µM in assay [2]. The EC50 in assay [3] was less than 5 µM.
